The NIST ThermoML archive (doi:10.1016/j.tca.2008.05.002)

Experiment: molar heat capacity at saturation pressure
Settings: Small (less than 1 g) adiabatic calorimetry

CCCCn1cc[n+](C)c1.O=[N+]([O-])[O-] [1-butyl-3-methylimidazolium nitrate]
Settings	molar heat capacity [J/K/mol]
223.56 K, Crystal 4	239.25
224.66 K, Crystal 4	240.26
225.64 K, Crystal 4	241.27
226.74 K, Crystal 4	242.07
227.72 K, Crystal 4	243.28
228.81 K, Crystal 4	244.08
229.79 K, Crystal 4	245.29
230.88 K, Crystal 4	246.1
231.86 K, Crystal 4	247.3
232.95 K, Crystal 4	248.31
233.92 K, Crystal 4	249.32
235.01 K, Crystal 4	250.32
235.97 K, Crystal 4	251.53
237.06 K, Crystal 4	252.54
238.03 K, Crystal 4	253.54
239.1 K, Crystal 4	254.75
239.2 K, Crystal 4	254.95
240.07 K, Crystal 4	255.55
241.14 K, Crystal 4	256.96
241.7 K, Crystal 4	257.57
242.11 K, Crystal 4	257.77
243.17 K, Crystal 4	259.18
244.08 K, Crystal 4	260.18
244.15 K, Crystal 4	259.98
245.2 K, Crystal 4	261.39
246.17 K, Crystal 4	262.6
246.45 K, Crystal 4	262.8
247.22 K, Crystal 4	263.8
248.19 K, Crystal 4	265.01
248.81 K, Crystal 4	265.61
249.23 K, Crystal 4	266.42
250.2 K, Crystal 4	267.63
251.15 K, Crystal 4	268.43
251.23 K, Crystal 4	269.04
252.21 K, Crystal 4	270.04
253.23 K, Crystal 4	271.45
253.48 K, Crystal 4	271.45
254.2 K, Crystal 4	272.66
255.22 K, Crystal 4	274.27
255.8 K, Crystal 4	274.87
256.19 K, Crystal 4	275.68
257.2 K, Crystal 4	277.29
258.1 K, Crystal 4	278.49
258.18 K, Crystal 4	278.49
259.18 K, Crystal 4	280.3
260.15 K, Crystal 4	281.51
260.4 K, Crystal 4	282.11
261.14 K, Crystal 4	283.32
262.11 K, Crystal 4	284.53
262.67 K, Crystal 4	286.14
263.1 K, Crystal 4	286.54
264.07 K, Crystal 4	287.95
264.94 K, Crystal 4	289.96
265.05 K, Crystal 4	289.56
266.02 K, Crystal 4	291.37
267 K, Crystal 4	293.79
267.19 K, Crystal 4	294.19
267.95 K, Crystal 4	295.4
268.93 K, Crystal 4	297.81
269.43 K, Crystal 4	299.02
269.88 K, Crystal 4	299.82
270.85 K, Crystal 4	302.44
271.65 K, Crystal 4	304.85
271.78 K, Crystal 4	304.65
271.8 K, Liquid	345.1
272.76 K, Crystal 4	307.47
273.68 K, Crystal 4	310.69
273.85 K, Crystal 4	312.1
274.46 K, Liquid	345.9
274.66 K, Crystal 4	313.71
275.56 K, Crystal 4	318.94
276.02 K, Crystal 4	318.54
276.35 K, Crystal 4	310.08
277.02 K, Liquid	346.71
277.33 K, Crystal 4	355.76
277.73 K, Crystal 4	345.5
277.82 K, Crystal 4	609.71
278.14 K, Crystal 4	322.56
278.16 K, Crystal 4	408.68
278.25 K, Crystal 4	455.57
278.82 K, Crystal 3	545.72
279.03 K, Crystal 3	470.06
279.41 K, Liquid	347.51
279.47 K, Crystal 3	414.92
279.88 K, Crystal 3	382.53
280.31 K, Crystal 3	308.07
280.95 K, Crystal 3	310.08
281.81 K, Liquid	348.32
281.84 K, Crystal 3	313.91
281.86 K, Crystal 3	314.31
282.47 K, Crystal 3	319.54
283.34 K, Crystal 3	324.98
283.95 K, Crystal 3	333.43
284.03 K, Crystal 3	333.23
284.21 K, Liquid	349.12
284.81 K, Crystal 3	341.48
285.42 K, Crystal 3	355.56
286.1 K, Crystal 3	372.26
286.25 K, Crystal 3	363.41
286.61 K, Liquid	349.93
286.8 K, Crystal 3	390.78
287.64 K, Crystal 3	372.26
288.03 K, Crystal 3	432.83
288.12 K, Crystal 2	417.54
289.01 K, Liquid	350.73
289.03 K, Crystal 2	359.38
289.45 K, Crystal 2	366.43
289.95 K, Crystal 2	362.2
290.42 K, Crystal 2	367.43
290.84 K, Crystal 2	370.25
291.41 K, Liquid	351.54
291.75 K, Crystal 2	425.39
291.98 K, Crystal 2	378.5
292.18 K, Crystal 2	416.33
293 K, Crystal 1	432.03
293.5 K, Crystal 1	380.51
293.81 K, Liquid	352.34
293.98 K, Crystal 1	378.1
294.33 K, Crystal 1	377.9
294.87 K, Crystal 1	383.53
295.97 K, Crystal 1	397.01
296.14 K, Crystal 1	399.03
296.21 K, Liquid	353.15
296.66 K, Crystal 1	410.29
297.89 K, Crystal 1	432.63
298.32 K, Crystal 1	442.09
298.61 K, Liquid	353.95
298.79 K, Crystal 1	458.19
299.7 K, Crystal 1	486.36
300.51 K, Crystal 1	519.76
300.77 K, Crystal 1	538.67
301.01 K, Liquid	354.76
301.36 K, Crystal 1	572.08
302.38 K, Crystal 1	652.97
302.52 K, Crystal 1	675.3
302.83 K, Crystal 1	708.51
303.42 K, Liquid	355.76
303.87 K, Crystal 1	876.13
303.98 K, Crystal 1	909.13
304.08 K, Crystal 1	926.83
305.82 K, Liquid	356.57
308.22 K, Liquid	357.37
310.14 K, Liquid	358.38
310.4 K, Liquid	358.58
310.62 K, Liquid	358.38
311.19 K, Liquid	358.58
312.54 K, Liquid	359.18
313.02 K, Liquid	358.98
313.34 K, Liquid	359.18
314.75 K, Liquid	359.99
315.42 K, Liquid	360.19
315.54 K, Liquid	359.99
316.76 K, Liquid	360.59
317.74 K, Liquid	360.99
317.82 K, Liquid	360.99
318.76 K, Liquid	361.6
319.94 K, Liquid	361.8
320.21 K, Liquid	362
320.76 K, Liquid	362.4
322.14 K, Liquid	362.81
322.61 K, Liquid	363.01
322.77 K, Liquid	363.41
324.34 K, Liquid	363.61
324.77 K, Liquid	364.01
325.01 K, Liquid	363.81
326.54 K, Liquid	364.62
326.77 K, Liquid	364.62
327.41 K, Liquid	365.02
328.73 K, Liquid	365.22
328.78 K, Liquid	365.42
329.81 K, Liquid	365.82
330.78 K, Liquid	366.43
330.93 K, Liquid	366.23
332.2 K, Liquid	366.83
332.78 K, Liquid	367.23
333.12 K, Liquid	367.03
334.6 K, Liquid	367.84
334.78 K, Liquid	368.24
335.32 K, Liquid	367.84
336.78 K, Liquid	368.84
336.99 K, Liquid	368.64
337.51 K, Liquid	369.04
338.78 K, Liquid	369.65
339.71 K, Liquid	369.65
340.78 K, Liquid	370.45
341.9 K, Liquid	370.45
342.78 K, Liquid	371.46
344.09 K, Liquid	371.46
344.78 K, Liquid	372.26
346.29 K, Liquid	372.46
346.78 K, Liquid	373.27
348.48 K, Liquid	373.47
348.78 K, Liquid	374.07
350.68 K, Liquid	374.28
350.78 K, Liquid	374.88
352.78 K, Liquid	375.68
352.87 K, Liquid	375.48
354.78 K, Liquid	376.69
355.06 K, Liquid	376.29
356.78 K, Liquid	377.7
357.25 K, Liquid	377.49
358.78 K, Liquid	378.3
359.44 K, Liquid	378.3
360.77 K, Liquid	379.31
361.63 K, Liquid	379.31
363.82 K, Liquid	380.11
366.01 K, Liquid	381.12
368.19 K, Liquid	382.32
